Test results from patent US8466279B2, “Polymorphs of efavirenz” (Hetero Drugs Limited, priority 2004, dated 2013).

Columns and labels:
[1] = dissolution properties compared with the known forms; format: physicochemical
[2] = stability of the crystalline form; format: physicochemical

| Compound | dissolution properties [1] | stability over the time [2] | stability relative to reported forms ([2]; versus Form I, Form II, Form III, Form 1, Form 2, Form 3, Form 4 and Form 5) |
| --- | --- | --- | --- |
| O=C1Nc2ccc(Cl)cc2[C@@](C#CC2CC2)(C(F)(F)F)O1 [amorphous efavirenz, (4S)-6-chloro-4-(cyclopropylethynyl)-1,4-dihydro-4-(trifluoromethyl)-2H-3,1-benzoxazin-2-one] | better dissolution properties | – | – |
| O=C1Nc2ccc(Cl)cc2[C@@](C#CC2CC2)(C(F)(F)F)O1 [efavirenz form H1, (4S)-6-chloro-4-(cyclopropylethynyl)-1,4-dihydro-4-(trifluoromethyl)-2H-3,1-benzoxazin-2-one] | – | stable over the time | at least as stable as the reported forms |
